Assay results reported in ChEMBL document CHEMBL4390686, “Design, Synthesis, and Pharmacokinetic Evaluation of Phosphate and Amino Acid Ester Prodrugs for Improving the Oral Bioavailability of the HIV-1 Protease Inhibitor Atazanavir” (J Med Chem, 2019).
Values after ≈ are worked out from the molar mass of the structure shown.

Tests used:
[1] = Aqueous solubility of the compound in pH 4 citrate buffer by RP-UPLC analysis; format: physicochemical
[2] = rat, in vivo, po, 3 mg/kg
[3] = Tmax in cannulated Sprague-Dawley rat assessed as atazanavir level at 30 mg/kg equiv of atazanavir administered orally by UPLC/MS/MS analysis; format: ADME, organism-based; conditions: in vivo, po
[4] = Total AUC in cannulated Sprague-Dawley rat assessed as atazanavir level at 6 mg/kg equiv of atazanavir administered orally by UPLC/MS/MS analysis relative to atazanavir alone; format: ADME, organism-based; conditions: in vivo, po
[5] = AUClast in cannulated Sprague-Dawley rat assessed as atazanavir level at 30 mg/kg equiv of atazanavir administered orally by UPLC/MS/MS analysis; format: ADME, organism-based; design: dose 30 mg/kg, route oral, time 0 - last; conditions: in vivo, po
[6] = Drug recovery in intestinal content of closed loop rat intestinal model at 1 mg/kg administered as cassette dose by LC/MS analysis; format: ADME, organism-based; conditions: in vivo
[7] = Ratio of test compound to atazanavir aqueous solubility in pH 6.5 phosphate buffer by RP-UPLC analysis; format: physicochemical
[8] = rat, in vivo, po, 3 mg/kg; remark: listed apart in the source
[9] = Ratio of test compound to atazanavir aqueous solubility in pH 3 buffer by RP-UPLC analysis; format: physicochemical
in vitro [10] = conditions: human, Caco-2
Description: Apparent permeability across apical to basolateral side in human Caco2 cells at 2 uM

[11] = Cmax in cannulated Sprague-Dawley rat assessed as atazanavir level at 6 mg/kg equiv of atazanavir administered orally by UPLC/MS/MS analysis; format: ADME, organism-based; design: dose 6 mg/kg, route oral; conditions: in vivo, po
[12] = Aqueous solubility of the compound in pH 5 buffer by RP-UPLC analysis; format: physicochemical
physchem [13] = conditions: phosphate buffer, pH 6.5
Description: Aqueous solubility of the compound in pH 6.5 phosphate buffer by RP-UPLC analysis

physchem [14] = conditions: 30% CH3CN/HCl buffer, pH 1
Description: Half life in pH 1 30%CH3CN/HCl buffer at 50 mM by RP-UPLC analysis

physchem [15] = conditions: acetate buffer, pH 4
Description: Aqueous solubility of the compound in pH 4 acetate buffer by RP-UPLC analysis

[16] = target: T1, UDP-glucuronosyltransferase 1A1 (Rattus norvegicus, UniProt Q64550); experiment: Inhibition of UGT1A1 in rat liver microsomes using beta-estradiol as substrate preincubated for 5 mins followed by substrate addition and measured after 40 mins by LC-MS/MS analysis; format: ADME
T1 sequence (Q64550 whole entry): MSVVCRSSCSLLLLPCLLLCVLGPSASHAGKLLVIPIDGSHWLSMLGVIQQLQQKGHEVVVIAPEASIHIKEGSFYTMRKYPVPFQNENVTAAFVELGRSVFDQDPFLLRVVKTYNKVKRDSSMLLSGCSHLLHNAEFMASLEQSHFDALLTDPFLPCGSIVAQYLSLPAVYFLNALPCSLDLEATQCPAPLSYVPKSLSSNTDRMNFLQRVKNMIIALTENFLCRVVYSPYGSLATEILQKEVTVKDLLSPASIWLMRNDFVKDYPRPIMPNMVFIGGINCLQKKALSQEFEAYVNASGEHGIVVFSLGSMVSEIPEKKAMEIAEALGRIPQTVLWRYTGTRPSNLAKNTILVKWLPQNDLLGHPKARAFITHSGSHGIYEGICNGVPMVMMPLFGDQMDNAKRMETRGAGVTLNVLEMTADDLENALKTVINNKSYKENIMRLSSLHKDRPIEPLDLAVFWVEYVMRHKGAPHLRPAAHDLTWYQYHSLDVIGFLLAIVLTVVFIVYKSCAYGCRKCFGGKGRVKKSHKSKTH

physchem [17] = conditions: HCl buffer, pH 1
Description: Aqueous solubility of the compound in pH 1 HCl buffer by RP-UPLC analysis

[18] = Elimination half life in rat hepatocytes at 1 uM in presence of esterase inhibitor PMSF/CYP450 inhibitor ABT; format: ADME, cell-based, Hepatocyte; conditions: read-out: beta t1/2
UGT1A1 [19] = target: T2, UGT1A1 (Rattus norvegicus, UniProt Q64550); experiment: Ratio of test compound IC50 to atazanavir IC50 for UGT1A1 in rat liver microsomes; format: ADME; conditions: read-out: Ratio IC50
T2 sequence (Q64550 whole entry): T1 sequence (Q64550 whole entry)

UGT1A1 [20] = target: T2, UGT1A1; experiment: Ratio of test compound IC50 to atazanavir IC50 for recombinant rat UGT1A1; format: ADME; conditions: read-out: Ratio IC50
UGT1A1 [21] = target: T3, UGT1A1 (Homo sapiens, UniProt P22309); experiment: Ratio of test compound IC50 to atazanavir IC50 for UGT1A1 in human liver microsomes; format: ADME; conditions: read-out: Ratio IC50
T3 sequence (P22309 whole entry): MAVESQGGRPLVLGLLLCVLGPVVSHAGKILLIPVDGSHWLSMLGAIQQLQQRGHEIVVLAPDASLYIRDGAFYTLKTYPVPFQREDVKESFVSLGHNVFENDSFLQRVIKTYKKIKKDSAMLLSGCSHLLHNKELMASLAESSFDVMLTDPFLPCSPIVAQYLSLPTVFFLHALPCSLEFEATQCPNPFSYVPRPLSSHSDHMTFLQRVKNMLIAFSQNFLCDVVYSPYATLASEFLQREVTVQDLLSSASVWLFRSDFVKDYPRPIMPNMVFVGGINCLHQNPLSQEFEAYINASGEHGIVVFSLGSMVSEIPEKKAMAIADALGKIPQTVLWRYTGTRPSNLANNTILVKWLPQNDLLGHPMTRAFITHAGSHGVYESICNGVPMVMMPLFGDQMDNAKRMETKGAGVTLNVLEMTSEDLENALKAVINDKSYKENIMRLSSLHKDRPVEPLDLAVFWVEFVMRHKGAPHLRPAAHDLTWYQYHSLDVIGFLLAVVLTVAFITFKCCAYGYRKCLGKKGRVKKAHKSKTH

[22] = Drug recovery in intestinal homogenates of closed loop rat intestinal model at 1 mg/kg administered as cassette dose by LC/MS analysis; format: ADME, organism-based, Intestine; conditions: intestinal homogenate, other: closed loop intestinal model, read-out: Drug recovery
[23] = AUClast in cannulated Sprague-Dawley rat assessed as atazanavir level at 6 mg/kg equiv of atazanavir administered orally by UPLC/MS/MS analysis; format: ADME, organism-based; design: dose 6 mg/kg, time 0 - last, route oral; conditions: in vivo, po
[24] = Drug metabolism in cannulated Sprague-Dawley rat assessed as prodrug to atazanavir ratio at 30 mg/kg equiv of atazanavir administered orally by UPLC/MS/MS analysis; format: ADME, organism-based; conditions: in vivo, po
[25] = Tmax in cannulated Sprague-Dawley rat assessed as atazanavir level at 6 mg/kg equiv of atazanavir administered orally by UPLC/MS/MS analysis; format: ADME, organism-based; conditions: in vivo, po
[26] = Cmin in cannulated Sprague-Dawley rat assessed as atazanavir level at 6 mg/kg equiv of atazanavir administered orally measured after 24 hrs by UPLC/MS/MS analysis; format: ADME, organism-based; conditions: in vivo, po, BLD = below limit of detection
[27] = Prodrug conversion in rat hepatocytes assessed as pseudo first order rate constant for atazanavir formation at 1 uM in presence of esterase inhibitor PMSF/CYP450 inhibitor ABT; format: ADME, cell-based, Hepatocyte
UGT1A1 [28] = experiment: Ratio of test compound IC50 to atazanavir IC50 for recombinant cynomolgus monkey UGT1A1; format: ADME, Macaca fascicularis; conditions: read-out: Ratio IC50
[29] = Ratio of test compound to atazanavir aqueous solubility in pH 4 citrate buffer by RP-UPLC analysis; format: physicochemical
in vitro [30] = conditions: human, Caco-2; remark: listed apart in the source
Description: Efflux ratio of apparent permeability across basolateral to apical side over apical to basolateral side in human Caco2 cells

physchem [31] = conditions: 30% CH3CN/phosphate buffer, pH 6.5
Description: Half life in pH 6.5 30%CH3CN/phosphate buffer at 50 mM by RP-UPLC analysis

physchem [32] = conditions: phosphate buffer, pH 7.4
Description: Aqueous solubility of the compound in pH 7.4 phosphate buffer by RP-UPLC analysis

What does the source list for COC(=O)N[C@H](C(=O)N[C@@H](Cc1ccccc1)[C@H](CN(Cc1ccc(-c2ccccn2)cc1)NC(=O)[C@@H](NC(=O)OC)C(C)(C)C)OC(=O)[C@@H](N)Cc1ccccc1)C(C)(C)C?
solubility [1]: > 1100 µg/mL; Tmax [2]: 0.5 h; Tmax [3]: 0.8 h; fold change (FC) [4]: 4.1; AUClast [5]: 19.67 µM·h; Drug recovery [6]: 32%; Ratio [7]: 27; Cmax [8]: 456 nM; Ratio [9]: 114; Papp A→B at 2 µM (in vitro [10]): < 1.5 ×10⁻⁶ cm/s; Cmax [11]: 550 nM; solubility [12]: 1300 µg/mL (≈ 1530 µM); solubility (physchem [13]): 27 µg/mL (≈ 31.7 µM); half-life at 50000 µM (physchem [14]): > 500 h; solubility (physchem [15]): 1100 to 4100 µg/mL (≈ 1290 to 4810 µM); IC50 [16]: 19.5 µM; solubility (physchem [17]): > 1500 µg/mL; half-life at 1 µM [18]: > 2 h; selectivity ratio (UGT1A1 [19]): 5.7; selectivity ratio (UGT1A1 [20]): 3; selectivity ratio (UGT1A1 [21]): 4.2; recovery [22]: 5.6%; AUClast [23]: 0.913 µM·h; Ratio [24]: 0.3; Tmax [25]: 0.5 h; Cmin [26]: Bld; K [27]: 0.0014 min⁻¹; selectivity ratio (UGT1A1 [28]): 17; Ratio [29]: 1100; efflux ratio (in vitro [30]): > 8.7; half-life at 50000 µM (physchem [31]): > 500 h; solubility (physchem [32]): 1 µg/mL (≈ 1.17 µM)
